Experimental data published in patent US20240336629A1, “Tricyclic Derivatives Useful As PARP7 Inhibitors” (JACOBIO PHARMACEUTICALS CO., LTD., priority 2021, published 2024).

Assays:
PARP7 enzyme = PARP7 enzyme (Homo sapiens (Human), UniProt Q7Z3E1); assay: PARP7 enzymatic experiment (HTRF assay); type: biochemical; details: 4PL fit
[1] = test system: lung cancer cell line H1373 (high expression of PARP7); assay: Lung cancer cell proliferation inhibition experiment (CTG method); type: cell-based; details: H1373 cells, 144 hrs incubation, Cell Titer Glo

Sequence of PARP7 enzyme (Q7Z3E1 456-657): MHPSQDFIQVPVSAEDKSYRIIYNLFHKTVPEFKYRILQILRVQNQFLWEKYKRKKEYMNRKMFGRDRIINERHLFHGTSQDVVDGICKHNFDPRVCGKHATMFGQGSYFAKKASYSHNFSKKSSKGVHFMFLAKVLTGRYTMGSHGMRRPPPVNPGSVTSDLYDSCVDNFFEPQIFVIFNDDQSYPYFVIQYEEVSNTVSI

| Structure (SMILES) | IC50 (PARP7 enzyme) | IC50 ([1]; Homo sapiens, NCI-H1373, 144 h) | IC50 [1] |
| --- | --- | --- | --- |
| C[C@@H](COCCC(=O)N1CCN2c3ncc(F)cc3N(C)C(=O)[C@@H]2C1)Nc1cn[nH]c(=O)c1C(F)(F)F (single isomer, unassigned) [Compound 19A] | 0.0017 µM | 0.269 µM |  |
| C[C@@H](COCCC(=O)N1CCN2c3ncc(Cl)cc3N(C)C(=O)[C@H]2C1)Nc1cn[nH]c(=O)c1C(F)(F)F (single isomer, unassigned) [Compound 20B] | 0.00185 µM | 0.0574 µM |  |
| CCN1C(=O)[C@@H]2CN(C(=O)CCOC[C@H](C)Nc3cn[nH]c(=O)c3C(F)(F)F)CCN2c2ncc(Br)cc21 (single isomer, unassigned) [Compound 23A] | 0.000804 µM | 0.117 µM |  |
| COC[C@@H](COCCC(=O)N1CCN2c3ncc(C(F)(F)F)cc3OC[C@H]2C1)Nc1cn[nH]c(=O)c1C(F)(F)F (single isomer, unassigned) [Compound 66A] | 0.00205 µM |  | 0.0855 µM |
| COC[C@@H](COCCC(=O)N1CCN2c3ncc(C(F)(F)F)cc3OC[C@@H]2C1)Nc1cn[nH]c(=O)c1C(F)(F)F (single isomer, unassigned) [Compound 66B] | 0.00182 µM |  | 0.0704 µM |
| CC(=O)c1c(N[C@@H](C)COCCC(=O)N2CCN3c4ncc(C(F)(F)F)cc4OCC[C@H]3C2)cn[nH]c1=O (single isomer, unassigned) [Compound 70A] | 0.0015 µM |  | 0.0287 µM |
| CC(=O)c1c(N[C@@H](C)COCCC(=O)N2CCN3c4ncc(C(F)(F)F)cc4OCC[C@@H]3C2)cn[nH]c1=O (single isomer, unassigned) [Compound 70B] | 0.00754 µM |  | 0.342 µM |
| C[C@@H](COCCC(=O)N1CCN2c3ncc(C(F)(F)F)cc3SCC[C@H]2C1)Nc1cn[nH]c(=O)c1C(F)(F)F (single isomer, unassigned) [Compound 71B] | 0.0149 µM |  | 0.912 µM |
| C[C@@H](COCCC(=O)N1CCN2c3ncc(Br)cc3SCC[C@H]2C1)Nc1cn[nH]c(=O)c1C(F)(F)F (single isomer, unassigned) [Compound 72A] | 0.000837 µM |  | 0.0133 µM |
| C[C@@H](COCCC(=O)N1CCN2c3ncc(C(F)(F)F)cc3C(=O)C[C@@H]2C1)Nc1cn[nH]c(=O)c1C(F)(F)F (single isomer, unassigned) [Compound 76A] | 0.00331 µM |  | 0.36 µM |
| C[C@@H](COCCC(=O)N1CCN2c3ncc(C(F)(F)F)cc3C(=O)C[C@H]2C1)Nc1cn[nH]c(=O)c1C(F)(F)F (single isomer, unassigned) [Compound 76B] | 0.00504 µM |  | 0.404 µM |
| C[C@@H](COCCC(=O)N1CCN2c3ncc(C(F)(F)F)cc3C(F)(F)C[C@@H]2C1)Nc1cn[nH]c(=O)c1C(F)(F)F (single isomer, unassigned) [Compound 77A] | 0.0126 µM |  | 0.349 µM |
| C[C@@H](COCCC(=O)N1CCN2c3ncc(C(F)(F)F)cc3C(F)(F)C[C@H]2C1)Nc1cn[nH]c(=O)c1C(F)(F)F (single isomer, unassigned) [Compound 77B] | 0.004 µM |  | 0.334 µM |
| CC(C)N1C(=O)[C@@H]2CN(C(=O)CCOC[C@H](C)Nc3cn[nH]c(=O)c3C(F)(F)F)CCN2c2ncc(C(F)(F)F)cc21 (single isomer, unassigned) [Compound 83A] | 0.00379 µM | 0.143 µM |  |
| CC(C)N1C(=O)[C@H]2CN(C(=O)CCOC[C@H](C)Nc3cn[nH]c(=O)c3C(F)(F)F)CCN2c2ncc(C(F)(F)F)cc21 (single isomer, unassigned) [Compound 83B] | 0.00364 µM | 0.468 µM |  |
| C[C@@H]1C[C@@H]2CN(C(=O)CCOC[C@@H]3CCN3c3cn[nH]c(=O)c3C(F)(F)F)CCN2c2ncc(C(F)(F)F)cc21 (single isomer, unassigned) [Compound 94A] | 0.00237 µM |  | 0.00851 µM |
| C[C@@H]1C[C@H]2CN(C(=O)CCOC[C@@H]3CCN3c3cn[nH]c(=O)c3C(F)(F)F)CCN2c2ncc(C(F)(F)F)cc21 (single isomer, unassigned) [Compound 94B] | 0.00294 µM |  | 0.0133 µM |
| C[C@H]1C[C@@H]2CN(C(=O)CCOC[C@@H]3CCN3c3cn[nH]c(=O)c3C(F)(F)F)CCN2c2ncc(C(F)(F)F)cc21 (single isomer, unassigned) [Compound 94C] | 0.0021 µM |  | 0.00703 µM |
| C[C@H]1C[C@H]2CN(C(=O)CCOC[C@@H]3CCN3c3cn[nH]c(=O)c3C(F)(F)F)CCN2c2ncc(C(F)(F)F)cc21 (single isomer, unassigned) [Compound 94D] | 0.00355 µM |  | 0.0158 µM |
| COc1ccc(Cn2ncc(N3CC(C)(C)[C@H]3COCCC(=O)N3CCN4c5ncc(C(F)(F)F)cc5N(C)C(=O)[C@@H]4C3)c(C(F)(F)F)c2=O)cc1 (single isomer, unassigned) [Compound 95A] | 0.00357 µM |  | 0.0399 µM |
| COc1ccc(Cn2ncc(N3CC(C)(C)[C@H]3COCCC(=O)N3CCN4c5ncc(C(F)(F)F)cc5N(C)C(=O)[C@H]4C3)c(C(F)(F)F)c2=O)cc1 (single isomer, unassigned) [Compound 95B] | 0.00588 µM |  | 0.0485 µM |
| CN1C(=O)[C@@H]2CN(C(=O)CCOC[C@@H]3CCCN3c3cn[nH]c(=O)c3C(F)(F)F)CCN2c2ncc(C(F)(F)F)cc21 (single isomer, unassigned) [Compound 98A] | 0.00125 µM |  | 0.0555 µM |
| CN1C(=O)[C@H]2CN(C(=O)CCOC[C@@H]3CCCN3c3cn[nH]c(=O)c3C(F)(F)F)CCN2c2ncc(C(F)(F)F)cc21 (single isomer, unassigned) [Compound 98B] | 0.00136 µM |  | 0.0371 µM |
| CC(=O)c1c(N[C@@H](C)COCCC(=O)N2CCN3c4ncc(C(F)(F)F)cc4N(C)C(=O)[C@@H]3C2)cn[nH]c1=O [Compound 13A] | 0.00136 µM | 0.0357 µM |  |

| Structure (SMILES) | IC50 (PARP7 enzyme) | IC50 ([1]; Homo sapiens, NCI-H1373, 144 h) | IC50 [1] |
| --- | --- | --- | --- |
| CC(=O)c1c(N[C@@H](C)COCCC(=O)N2CCN3c4ncc(C(F)(F)F)cc4N(C)C(=O)[C@H]3C2)cn[nH]c1=O [Compound 13B] | 0.00173 µM | 0.0522 µM |  |
| CC[C@@H](COCCC(=O)N1CCN2c3ncc(C(F)(F)F)cc3N(C)C(=O)[C@@H]2C1)Nc1cn[nH]c(=O)c1C(F)(F)F [Compound 15A] | 0.00193 µM | 0.0824 µM |  |
| CC[C@@H](COCCC(=O)N1CCN2c3ncc(C(F)(F)F)cc3N(C)C(=O)[C@H]2C1)Nc1cn[nH]c(=O)c1C(F)(F)F [Compound 15B] | 0.00286 µM | 0.187 µM |  |
| C[C@@H](COCCC(=O)N1CCN2c3ncc(F)cc3N(C)C(=O)[C@H]2C1)Nc1cn[nH]c(=O)c1C(F)(F)F [Compound 19B] | 0.00275 µM | 0.221 µM |  |
| C[C@@H](COCCC(=O)N1CCN2c3ncc(Br)cc3N(C)C(=O)[C@@H]2C1)Nc1cn[nH]c(=O)c1C(F)(F)F [Compound 21A] | 0.000424 µM | 0.0809 µM |  |
| C[C@@H](COCCC(=O)N1CCN2c3ncc(Br)cc3N(C)C(=O)[C@H]2C1)Nc1cn[nH]c(=O)c1C(F)(F)F [Compound 21B] | 0.000812 µM | 0.0436 µM |  |
| CCN1C(=O)[C@@H]2CN(C(=O)CCOC[C@H](C)Nc3cn[nH]c(=O)c3C(F)(F)F)CCN2c2ncc(Cl)cc21 [Compound 22A] | 0.000846 µM | 0.139 µM |  |
| CCN1C(=O)[C@H]2CN(C(=O)CCOC[C@H](C)Nc3cn[nH]c(=O)c3C(F)(F)F)CCN2c2ncc(Cl)cc21 [Compound 22B] | 0.000969 µM | 0.0641 µM |  |
| CCN1C(=O)[C@H]2CN(C(=O)CCOC[C@H](C)Nc3cn[nH]c(=O)c3C(F)(F)F)CCN2c2ncc(Br)cc21 [Compound 23B] | 0.000863 µM | 0.0461 µM |  |
| COC[C@@H](COCCC(=O)N1CCN2c3ncc(C(F)(F)F)cc3N(C(C)C)C(=O)[C@@H]2C1)Nc1cn[nH]c(=O)c1C(F)(F)F [Compound 25A] | 0.00372 µM | 0.0381 µM |  |
| COC[C@@H](COCCC(=O)N1CCN2c3ncc(C(F)(F)F)cc3N(C(C)C)C(=O)[C@H]2C1)Nc1cn[nH]c(=O)c1C(F)(F)F [Compound 25B] | 0.00536 µM | 0.0534 µM |  |
| CC(=O)c1c(N[C@@H](C)COCCC(=O)N2CCN3c4ncc(C(F)(F)F)cc4N(C4CC4)C(=O)C3C2)cn[nH]c1=O (stereo partly drawn) [Compound 27] | 0.00698 µM | 0.441 µM |  |
| C[C@@H](COCCC(=O)N1CCN2c3ncc(C(F)(F)F)cc3N(C)CC2C1)Nc1cn[nH]c(=O)c1C(F)(F)F (stereo partly drawn) [Compound 39] |  | 0.108 µM |  |
| C[C@@H](COCCC(=O)N1CCN2c3ncc(C(F)(F)F)cc3N(C)CCC2C1)Nc1cn[nH]c(=O)c1C(F)(F)F (stereo partly drawn) [Compound 40] |  | 0.26 µM |  |
| C[C@@H](COCCC(=O)N1CCn2c(cc3cc(C(F)(F)F)cnc32)C1)Nc1cn[nH]c(=O)c1C(F)(F)F [Compound 41] |  | 0.276 µM |  |
| C[C@@H](COCCC(=O)N1CCn2c(c(Cl)c3cc(C(F)(F)F)cnc32)C1)Nc1cn[nH]c(=O)c1C(F)(F)F [Compound 42] |  | 0.138 µM |  |
| Cc1c2n(c3ncc(C(F)(F)F)cc13)CCN(C(=O)CCOC[C@H](C)Nc1cn[nH]c(=O)c1C(F)(F)F)C2 [Compound 43] |  | 0.105 µM |  |
| C[C@@H](COCCC(=O)N1CCn2c(nc3cc(C(F)(F)F)cnc32)C1)Oc1cn[nH]c(=O)c1C(F)(F)F [Compound 49A] |  | 0.185 µM |  |
| C[C@@H](COCCC(=O)N1CCN2c3ncc(C(F)(F)F)cc3OC[C@H]2C1)Nc1cn[nH]c(=O)c1C(F)(F)F [Compound 53A] |  | 0.296 µM |  |
| C[C@@H](COCCC(=O)N1CCN2c3ncc(C(F)(F)F)cc3OC[C@@H]2C1)Nc1cn[nH]c(=O)c1C(F)(F)F [Compound 53B] |  | 0.214 µM |  |
| C[C@@H](COCCC(=O)N1CCN2c3ncc(C(F)(F)F)cc3OCC2C1)Nc1cn[nH]c(=O)c1C(F)(F)F (stereo partly drawn) [Compound 53] |  | 0.0797 µM |  |
| C[C@@H](COCCC(=O)N1CCN2c3ncc(C(F)(F)F)cc3OCCC2C1)Nc1cn[nH]c(=O)c1C(F)(F)F (stereo partly drawn) [Compound 54] |  | 0.0636 µM |  |
| C[C@H](COCCC(=O)N1CCN2c3ncc(C(F)(F)F)cc3N(C)C(=O)[C@@H]2C1)Oc1cn[nH]c(=O)c1C(F)(F)F [Compound 81C] |  |  | 0.0192 µM |
| C[C@H](COCCC(=O)N1CCN2c3ncc(C(F)(F)F)cc3N(C)C(=O)[C@H]2C1)Oc1cn[nH]c(=O)c1C(F)(F)F [Compound 81D] |  |  | 0.0123 µM |
